{"source": "patent US9562031B1", "about": "“Phenethyldihydrobenzodioxolones and methods of use” (Sequoia Sciences, Inc., priority 2015, dated 2017)", "key": {"K-562 cells [1]": {"system": "K-562 cells", "assay": "antiproliferation assay, K-562", "type": "cell-based", "conditions": "Homo sapiens, K562", "description": "(§1) For the antiproliferation assay, NCI-H460 (large cell lung carcinoma) or M14 (amelanotic melanoma) cells were grown in RPMI-1640 with 10% FBS supplemented with L-glutamine and HEPES. Cells were seeded into 96-well plates at 5×10^2 to 5×10^4 cells/well and allowed to adhere overnight; the medium was then removed. A stock solution of test compound in DMSO was diluted in medium to generate a series of working solutions. Aliquots (100 μl) of the working solutions were then added to the appropriate test wells to expose cells to the final concentrations of compound in a total volume of 100 μl. Seven different concentrations were tested, with 2-5 wells per concentration. Camptothecin was used as a positive control; wells containing vehicle without compound were used as negative controls. Plates were kept for 72 h in a 37° C., 5% CO2 incubator. After incubation, viable cells were detected with the CELLTITER 96 AQueous Non-Radioactive Cell Proliferation Assay (Promega), and IC50 values were determined using GraphPad Prism 5 software.\nAntiproliferation of several of the active compounds was tested against additional cell lines."}, "HCT-15 cells": {"system": "HCT-15 cells", "assay": "antiproliferation assay, paclitaxel-resistant HCT-15", "type": "cell-based", "conditions": "Homo sapiens", "description": "as §1\n(§2) Compound 4 was tested for antiproliferation activity against several paclitaxel-resistant human cancer cell lines."}, "EKVX cells": {"system": "EKVX cells", "assay": "antiproliferation assay, paclitaxel-resistant EKVX", "type": "cell-based", "conditions": "Homo sapiens", "description": "as §1, §2"}, "ACHN cells [2]": {"system": "ACHN cells", "assay": "antiproliferation assay, paclitaxel-resistant ACHN", "type": "cell-based", "conditions": "Homo sapiens", "description": "as §1, §2"}, "[3]": {"system": "NCI-H460 (lung) xenograft tumors", "assay": "tumor growth inhibition, NCI-H460 murine xenograft model", "type": "in vivo, mice", "description": "(§3) Tumor growth inhibition of compound 4 was measured in several murine xenograft models, and the results of individual experiments are listed in Table 14. Tumors were initiated by subcutaneous injection of either tumor cells from cell culture or tumor fragments from continuous in vivo passage. When tumors reached volumes between approximately 100 and 200 mm^3, the mice were divided into vehicle and treatment groups. Compound or vehicle was administered by IP injection in a volume of 5-10 mL/kg.\n(§4) Changes in tumor weight (delta weights) for each treated (T) and control (C) group are calculated for each day tumors are measured by subtracting the median tumor weight on the first day of treatment (staging day) from the median tumor weight on the specified observation day. These values are used to calculate a percent T/C as follows: % T/C=(delta T/delta C)×100. The optimal T/C is the minimal value obtained after the first treatment."}, "[4]": {"system": "NCI-H727 xenograft tumors", "assay": "tumor growth inhibition, NCI-H727 murine xenograft model", "type": "in vivo, mice", "conditions": "IP 40 mg/kg, days 0,1,2,5,6,7,10,11,12", "description": "as §3, §4"}, "[5]": {"system": "LOX-IMVI (melanoma) xenograft tumors", "assay": "tumor growth inhibition, LOX-IMVI murine xenograft model", "type": "in vivo, mice", "description": "as §3, §4"}, "A549 cells": {"system": "A549 cells", "assay": "NCI-60 panel antiproliferation, A549", "type": "cell-based, human", "conditions": "Homo sapiens, NCI 60-cell panel", "description": "(§5) Bifidenone and Compound 37 were tested for antiproliferation activity against the NCI-60 panel of cancer cell lines. COMPARE analysis was then conducted to compare the activity “fingerprint” of bifidenone to those of known classes of compounds (Zhou, B.-N., Hoch, J. M., Johnson, R. K., Mattern, M. R., Eng, W.-K., Ma, J., Hecht, S. M., Newman, D. J., Kingston, D. G. I., 2000. Use of COMPARE Analysis to Discover New Natural Product Drugs: Isolation of Camptothecin and 9-Methoxycamptothecin from a New Source. Journal of Natural Products 63, 1273-1276.)."}, "ACHN cells [6]": {"system": "ACHN cells", "assay": "NCI-60 panel antiproliferation, ACHN", "type": "cell-based, human", "conditions": "Homo sapiens, NCI 60-cell panel", "description": "as §5"}, "Caki-1 cells": {"system": "Caki-1 cells", "assay": "NCI-60 panel antiproliferation, Caki-1", "type": "cell-based, human", "conditions": "Homo sapiens, NCI 60-cell panel", "description": "as §5"}, "DU-145 cells": {"system": "DU-145 cells", "assay": "NCI-60 panel antiproliferation, DU-145", "type": "cell-based, human", "conditions": "Homo sapiens, NCI 60-cell panel", "description": "as §5"}, "HCC-2998 cells": {"system": "HCC-2998 cells", "assay": "NCI-60 panel antiproliferation, HCC-2998", "type": "cell-based, human", "conditions": "Homo sapiens, NCI 60-cell panel", "description": "as §5"}, "HOP-62 cells": {"system": "HOP-62 cells", "assay": "NCI-60 panel antiproliferation, HOP-62", "type": "cell-based, human", "conditions": "Homo sapiens, NCI 60-cell panel", "description": "as §5"}, "Hs578T cells": {"system": "Hs578T cells", "assay": "NCI-60 panel antiproliferation, Hs578T", "type": "cell-based, human", "conditions": "Homo sapiens, Hs-578T, NCI 60-cell panel", "description": "as §5"}, "IGR-OV1 cells": {"system": "IGR-OV1 cells", "assay": "NCI-60 panel antiproliferation, IGR-OV1", "type": "cell-based, human", "conditions": "Homo sapiens, IGROV-1, NCI 60-cell panel", "description": "as §5"}, "K-562 cells [7]": {"system": "K-562 cells", "assay": "NCI-60 panel antiproliferation, K-562", "type": "cell-based, human", "conditions": "Homo sapiens, K562, NCI 60-cell panel", "description": "as §5"}, "M14 cells": {"system": "M14 cells", "assay": "NCI-60 panel antiproliferation, M14", "type": "cell-based, human", "conditions": "Homo sapiens, NCI 60-cell panel", "description": "as §5"}, "NCI-H23 cells": {"system": "NCI-H23 cells", "assay": "NCI-60 panel antiproliferation, NCI-H23", "type": "cell-based, human", "conditions": "Homo sapiens, NCI 60-cell panel", "description": "as §5"}, "NCI-H322M cells": {"system": "NCI-H322M cells", "assay": "NCI-60 panel antiproliferation, NCI-H322M", "type": "cell-based, human", "conditions": "Homo sapiens, NCI 60-cell panel", "description": "as §5"}, "NCI-H522 cells": {"system": "NCI-H522 cells", "assay": "NCI-60 panel antiproliferation, NCI-H522", "type": "cell-based, human", "conditions": "Homo sapiens, NCI 60-cell panel", "description": "as §5"}, "OVCAR-8 cells": {"system": "OVCAR-8 cells", "assay": "NCI-60 panel antiproliferation, OVCAR-8", "type": "cell-based, human", "conditions": "Homo sapiens, NCI 60-cell panel", "description": "as §5"}, "SF-268 cells": {"system": "SF-268 cells", "assay": "NCI-60 panel antiproliferation, SF-268", "type": "cell-based, human", "conditions": "Homo sapiens, NCI 60-cell panel", "description": "as §5"}, "SF-539 cells": {"system": "SF-539 cells", "assay": "NCI-60 panel antiproliferation, SF-539", "type": "cell-based, human", "conditions": "Homo sapiens, NCI 60-cell panel", "description": "as §5"}, "SK-Mel-5 cells": {"system": "SK-Mel-5 cells", "assay": "NCI-60 panel antiproliferation, SK-MEL-5", "type": "cell-based, human", "conditions": "Homo sapiens, NCI 60-cell panel", "description": "as §5"}, "SN12C cells": {"system": "SN12C cells", "assay": "NCI-60 panel antiproliferation, SN12C", "type": "cell-based, human", "conditions": "Homo sapiens, NCI 60-cell panel", "description": "as §5"}, "SNB-19 cells": {"system": "SNB-19 cells", "assay": "NCI-60 panel antiproliferation, SNB-19", "type": "cell-based, human", "conditions": "Homo sapiens, NCI 60-cell panel", "description": "as §5"}, "SR cells": {"system": "SR cells", "assay": "NCI-60 panel antiproliferation, SR", "type": "cell-based, human", "conditions": "Homo sapiens, NCI 60-cell panel", "description": "as §5"}, "UACC-62 cells": {"system": "UACC-62 cells", "assay": "NCI-60 panel antiproliferation, UACC-62", "type": "cell-based, human", "conditions": "Homo sapiens, NCI 60-cell panel", "description": "as §5"}, "UACC-257 cells": {"system": "UACC-257 cells", "assay": "NCI-60 panel antiproliferation, UACC-257", "type": "cell-based, human", "conditions": "Homo sapiens, NCI 60-cell panel", "description": "as §5"}, "[8]": {"conditions": "IP 30 mg/kg, days 0,1,2,3,5,6,7,8,10,11,12,13"}, "[9]": {"conditions": "IP 60 mg/kg, days 0,1,2,5,6,7,10,11,12"}, "[10]": {"conditions": "IP 30 mg/kg, days 0,1,2,3,4,5,6"}}, "note": "pIC50: −log10 of the molar value. Where “and” joins values, the source holds several entries; their conditions need not be identical. Equal entries are not always repeated.", "data": [{"smiles": "C=CC[C@H]1C[C@]2([C@H](C)Cc3cc(O)c(OC)cc3F)OCOC2=CC1=O", "note": "(relative stereo) [Compound 4, 6-allyl-7a-(1-(2-fluoro-5-hydroxy-4-methoxyphenyl)propan-2-yl)-7,7a-dihydrobenzo[d][1,3]dioxol-5(6H)-one]", "values": [{"measurement": "pIC50", "setting": "K-562 cells [1]", "value": 7.89}, {"measurement": "pIC50", "setting": "HCT-15 cells", "value": "> 8.30"}, {"measurement": "pIC50", "setting": "EKVX cells", "value": 8.15}, {"measurement": "pIC50", "setting": "ACHN cells [2]", "value": 7.82}, {"measurement": "Maximum Mean Body Weight Loss", "setting": "[3]; [8]", "value": 7, "unit": "%"}, {"measurement": "Optimal T/C", "setting": "[3]; [8]", "value": 42, "unit": "%"}, {"measurement": "Maximum Mean Body Weight Loss", "setting": "[3]; IP 40 mg/kg, days 0,1,2,5,6,7,10,11,12 (two experiments)", "value": 7, "unit": "%"}, {"measurement": "Optimal T/C", "setting": "[3]; IP 40 mg/kg, days 0,1,2,5,6,7,10,11,12 (two experiments), 40 mg/kg", "value": "29% and 35%"}, {"measurement": "Maximum Mean Body Weight Loss", "setting": "[3]; [9]", "value": 9, "unit": "%"}, {"measurement": "Optimal T/C", "setting": "[3]; [9]", "value": 40, "unit": "%"}, {"measurement": "Maximum Mean Body Weight Loss", "setting": "[4]", "value": 0, "unit": "%"}, {"measurement": "Optimal T/C", "setting": "[4]", "value": 30, "unit": "%"}, {"measurement": "Maximum Mean Body Weight Loss", "setting": "[5]; IP 30 mg/kg, days 0,1,2,3,4,5", "value": 7, "unit": "%"}, {"measurement": "Optimal T/C", "setting": "[5]; IP 30 mg/kg, days 0,1,2,3,4,5", "value": 31, "unit": "%"}, {"measurement": "Maximum Mean Body Weight Loss", "setting": "[5]; [10]", "value": 6, "unit": "%"}, {"measurement": "Optimal T/C", "setting": "[5]; [10]", "value": 36, "unit": "%"}, {"measurement": "Maximum Mean Body Weight Loss", "setting": "[5]; IP 40 mg/kg, days 0,1,2,5,6,7", "value": 9, "unit": "%"}, {"measurement": "Optimal T/C", "setting": "[5]; IP 40 mg/kg, days 0,1,2,5,6,7", "value": 39, "unit": "%"}]}, {"smiles": "C=CC[C@H]1C[C@]2([C@@H](C)Cc3ccc(OC)c(F)c3)OCOC2=CC1=O", "note": "[Compound 37, (6S,7aR)-6-allyl-7a-((S)-1-(3-fluoro-4-methoxyphenyl)propan-2-yl)-7,7a-dihydrobenzo[d][1,3]dioxol-5(6H)-one]", "values": [{"measurement": "pIC50", "setting": "A549 cells", "value": 7.26}, {"measurement": "pIC50", "setting": "ACHN cells [6]", "value": 7.49}, {"measurement": "pIC50", "setting": "Caki-1 cells", "value": 7.01}, {"measurement": "pIC50", "setting": "DU-145 cells", "value": 6.73}, {"measurement": "pIC50", "setting": "HCC-2998 cells", "value": 6.89}, {"measurement": "pIC50", "setting": "HOP-62 cells", "value": 6.99}, {"measurement": "pIC50", "setting": "Hs578T cells", "value": 7.14}, {"measurement": "pIC50", "setting": "IGR-OV1 cells", "value": 7.20}, {"measurement": "pIC50", "setting": "K-562 cells [7]", "value": 7.37}, {"measurement": "pIC50", "setting": "M14 cells", "value": 7.23}, {"measurement": "pIC50", "setting": "NCI-H23 cells", "value": 6.91}, {"measurement": "pIC50", "setting": "NCI-H322M cells", "value": 6.90}, {"measurement": "pIC50", "setting": "NCI-H522 cells", "value": 7.21}, {"measurement": "pIC50", "setting": "OVCAR-8 cells", "value": 6.96}, {"measurement": "pIC50", "setting": "SF-268 cells", "value": 6.21}, {"measurement": "pIC50", "setting": "SF-539 cells", "value": 7.13}, {"measurement": "pIC50", "setting": "SK-Mel-5 cells", "value": 7.22}, {"measurement": "pIC50", "setting": "SN12C cells", "value": 6.46}, {"measurement": "pIC50", "setting": "SNB-19 cells", "value": 7.14}, {"measurement": "pIC50", "setting": "SR cells", "value": 7.85}, {"measurement": "pIC50", "setting": "UACC-62 cells", "value": 7.46}, {"measurement": "pIC50", "setting": "UACC-257 cells", "value": 7.37}]}]}
